# Legend:
# [1] = test system: HaCat cells; test: m6A methylation level of drug-treated HaCat keratinocytes by nanopore sequencing (Example 14); format: cell-based, human; settings: 50 nM drug, 24 hours
# Protocol: 1*10^8 HaCat cells were seeded in culture dishes, into which 50 nM drugs (including sorafenib, capecitabine, docetaxel, and osimertinib) were added, respectively. The cells were cultured in an incubator containing 5% CO2 at 37° C. for 24 hours and washed with PBS after culture media were removed. Centrifugation was performed, the supernatant was discarded, and then, 400 μL of an RLT cell lysis buffer (QIAGEN, Cat. #79216) was added. A portion of samples were selected, into which 400 μL of 70% ethanol was added. The mixture was evenly stirred and then transferred to an RNeasy mini column, and RNA was extracted using an RNeasy mini kit (QIAGEN, Cat. #74104). 2 μL of an RNA sample was selected and dissolved in 98 μL of a 10 mM Tris-HCl buffer solution, and the absorbance at 260 nm was measured using a Nanodrop (Thermo Fisher Scientific) to determine the RNA concentration.
# 40 μg of an RNA sample was selected for enrichment of mRNA (PolyA+RNA) using an NEBNext Poly(A) mRNA magnetic isolation module (NEB, Cat. #E7490), and then, a 3′ end of the above enriched mRNA (PolyA+RNA) molecule was ligated with reverse transcription adapter RTA using a direct RNA sequencing kit (Oxford Nanopore Technologies, Cat. #SQK-RNA002). A reverse transcription reaction was performed with the mRNA (PolyA+RNA) molecule as a template to synthesize a complementary strand, a terminal end of the reverse transcription adapter RTA was ligated with a sequencing adapter (RNA adapter) to form a final sequencing library, and quantitative detection was performed using a Qubit™ dsDNA HS assay kit (Invitrogen, Cat. #LOT2133187).
# After quality inspection of the library, the prepared sequencing library was loaded onto a PromethION flow cell chip (Oxford Nanopore Technologies, Cat. #FLO-MIN106D), and placed in a PromethION sequencer (Oxford Nanopore Technologies) for sequencing by selecting a matched sequencing mode. Basecalling was performed on sequencing data through guppy, and m6A methylation analysis was performed on original fast5 data.
# [2] = test system: HaCat cells; test: m6A methylation level of human HaCat keratinocytes, EpiQuik m6A RNA methylation quantification kit (Example 20); format: cell-based; settings: for m6A methylation level of human HaCat keratinocytes / fold induction at 0.05 µM: 50 nM drug alone; for fold induction at 0.05 µM: Homo sapiens, read-out: m6A fold change relative to control group 1; for fold induction at 0.05 µM / m6A fold change relative to control group 1: HaCat cells, 24 hours
# Protocol: HaCat cells were cultured in a DMEM culture medium containing 10% fetal bovine serum, 100 U/mL penicillin, and 100 μg/mL streptomycin. Culture dishes were placed in an incubator containing 5% CO2 for culture at 37° C. for 24 hours. An equal volume of DMSO was added in control group 1, 50 nM sorafenib, capecitabine, docetaxel, and osimertinib were respectively added in control groups A, B, C, and D, and 400 nM test compounds or nicotinamide were respectively added in sample groups A1-17, B1-17, C1-17, and D1-17 after the addition of 50 nM corresponding compounds. The cells were continuously cultured for 24 hours, washed with PBS, and then collected by high-speed centrifugation. Total RNA was extracted using a Trizol reagent (Sigma Aldrich), and RNA m6A methylation of a sample was quantitatively detected using an EpiQuik m6A RNA methylation quantification kit. The concentrations of positive control samples for a standard curve were 0.01 ng/μl, 0.02 ng/μl, 0.05 ng/μl, 0.1 ng/μl, 0.2 ng/μl, and 0.5 ng/μl. The absorbance at 450 nm was read using a microplate reader (Tecan GENios). A quantitative calculation formula for m6A is as follows:
# m6A (ng)=(absorbance of sample well−absorbance of background well)/slope of standard curve m6A (%)=m6A (ng)/RNA amount of sample (ng)*100%.
# [3] = test system: skin of hind limb toes of mice; test: Chemotherapeutic drug-induced mouse models with hand-foot syndrome (Example 23); format: in vivo, ICR mice; settings: for degree of swelling of hind limb toes / epidermal layer and stratum corneum in skin tissues of hind limb toes (pathological staining): modeling drug oral for 14 days; for skin appearance of hind limb toes: modeling for 14 days, capecitabine 200 mg/kg or docetaxel 25 mg/kg oral
# Text: After adaptive feeding for 7 days, SPF-grade ICR mice (male, 5-6 weeks old, with a body weight of approximately 35 g) were randomly divided into groups, including a blank control group (6 mice), a capecitabine modeling group (6 mice), a docetaxel modeling group (6 mice), a capecitabine+compound 2b group (6 mice), a docetaxel+compound 2b group (6 mice), a capecitabine+nicotinamide group (6 mice), and a docetaxel+nicotinamide group (6 mice). The groups were respectively administered corresponding modeling drugs by oral gavage (capecitabine at 200 mg/kg and docetaxel at 25 mg/kg) once daily, and the blank control group was administered an equivalent volume of normal saline. After administration with the chemotherapeutic drugs for 2 weeks, the compound ointments (at a compound content of 3%) used in Example 22 were respectively applied topically in the groups, or nicotinamide was orally administered (100 mg/kg) once daily continuously for 16 days.
# Measurement of the degree of swelling of toes: The degree of swelling of hind limb toes of the mice was measured using a toe swelling tester (KW-7C, Nanjing Calvin Biotechnology Co., Ltd.) before administration with the modeling drugs, after administration with the modeling drugs for 2 weeks, and before sacrifice, respectively. Before measurement, ankle joints of hind paws of the mice were marked at same positions before administration, after administration for 2 weeks, and before sacrifice. During measurement, water was properly located at the same level as the marked positions, and numerical values were recorded after becoming stable.
# Pathological staining of skin tissues: Skin tissue samples were selected from hind limb toes of the mice and placed in 4% paraformaldehyde for fixation at room temperature for 4 hours. Then, the tissues were taken out and rinsed with running water for several hours. The samples were subjected to dehydration treatment with 70%, 80%, and 90% ethanol solutions, followed by treatment with a mixed solution of equal amounts of absolute alcohol and xylene for 15 minutes, and then permeabilized twice with a xylene solution for 15 minutes each time until the samples became transparent. The samples were placed in a mixture of half xylene and half paraffin for soaking for 15 minutes, and then, paraffin I and paraffin II were added for wax penetration for one hour, respectively. After embedding with paraffin, the samples were sectioned, baked, dewaxed, and hydrated. Then, the hydrated sections were placed in a hematoxylin solution (ZSGB-BIO, article No. 23041001) for staining for 3 minutes, and a differentiation solution of hydrochloric acid in ethanol was added for differentiation for 15 seconds. After rinsing with water, a Scott bluing solution (Servicebio, article No. 20230801) was added for bluing for 15 seconds. After rinsing with running water, the sections were stained with an eosin solution (Solarbio, article No. 33535) for 3 minutes, rinsed with running water, dehydrated, permeabilized, sealed, and inspected under a microscope.
# Immunohistochemical staining: After baking, dewaxing, and hydration, paraffin sections of skin tissues of hind limb toes of the mice were subjected to antigen retrieval using a 0.2 M citric acid buffer solution (containing 1.534 g of citric acid, 3.1 g of sodium citrate, and 100 mL of distilled water, pH 4.7). Endogenous […] was removed using 3% hydrogen peroxide (Shandong Annjet High-Tech Disinfection Technology Co., Ltd., article No. 20290902), and the sections were incubated at room temperature for 10 minutes and then fully rinsed with a PBS buffer solution (containing 8 g of NaCl, 0.2 g of KCl, 1.44 g of Na2HPO4, and 1 M HCl, pH 7.4). The sections were permeabilized with 0.5% Triron-X-100 (AmyJet Scientific, article No. A-CSH436-100 mL), respectively permeabilized with mouse anti-IL-1β and rabbit IL-8 for 10 minutes, and not permeabilized with rabbit anti-IL-6. […]
# [4] = test system: HaCaT keratinocytes; test: Inhibition of HBEGF-induced differentiation of HaCaT keratinocytes, marker mRNA by RT-PCR (Example 21); format: cell-based, human; settings: 2.5 ng/mL human recombinant HBEGF protein + test compound, 24 hours
# Protocol: Human HaCaT keratinocytes were cultured in a DMEM culture medium containing 10% fetal bovine serum, 100 U/mL penicillin, and 100 µg/mL streptomycin. The cells were seeded into a 96-well plate at a density of […] and placed in an incubator containing 5% carbon dioxide for culture at 37° C. for 24 hours. An equal volume of DMSO was added into control well 1, a 2.5 ng/mL human recombinant HBEGF protein (Abcam, ab205523) was added into control well 2, and a 2.5 ng/mL human recombinant HBEGF protein and corresponding concentrations of test compounds were added into sample wells. The cells were continuously cultured for 24 hours, washed with PBS, and then collected by high-speed centrifugation. Total RNA was extracted using a Trizol reagent (Sigma Aldrich). 1 μg of RNA was reverse-transcribed into cDNA using a cDNA reverse transcription kit (Transgene Biotech, AT311-03). 1.25 μL of a primer (with a primer sequence shown in Table 2), 10 μL of an iTag Universal SYBR Green supermix (Bio-Rad, 172-S125), and an appropriate amount of DEPC ultrapure water were added to formulate 20 μL of a reaction solution to perform an RT-PCR reaction. Upon completion of the reaction, the reaction solution was subjected to agarose gel electrophoresis to determine the mRNA expression amounts of keratinocyte differentiation markers KRT1, KRT10, Loricrin, and Involucrin.
# [5] = test system: NAP1L2 mRNA in HaCat cells; test: NAP1L2 mRNA expression in HaCat cells by RT-PCR (Example 16); format: cell-based, human; settings: HaCat keratinocytes, 24 hours
# Protocol: 1*10^8 HaCat cells were seeded in culture dishes, into which a recombinant protein of m6A methylase METTL3 (Abcam, Cat. #ab271611) and a recombinant protein of m6A demethylase FTO (Abcam, Cat. #ab271525) were added, or METTL3 siRNA (sh-METTL3, GeneChem) and FTO siRNA (sh-FTO, GeneChem) were transfected, respectively. The cells were placed in an incubator containing 5% carbon dioxide for culture at 37° C. for 24 hours, washed with PBS, and then collected by high-speed centrifugation. Total RNA was extracted using a Trizol reagent (Sigma Aldrich). 1 μg of RNA was reverse-transcribed into cDNA using a cDNA reverse transcription kit (Transgene Biotech, Cat. #AT311-03). 1.25 μL of a primer (Beyotime, Cat. #QH18721S), 10 μL of an iTag Universal SYBR Green supermix (Bio-Rad, Cat. #172-5125), and an appropriate amount of DEPC ultrapure water were added to formulate 20 μL of a reaction solution to perform an RT-PCR reaction. Upon completion of the reaction, the reaction solution was subjected to agarose gel electrophoresis to determine the mRNA expression amount of NAP1L2.
# [6] = 50 nM capecitabine + 400 nM test compound
# [7] = 50 nM docetaxel + 400 nM test compound
# [8] = 50 nM osimertinib + 400 nM test compound
# [9] = 50 nM sorafenib + 400 nM test compound
molecule,measurement,setting,value
"CCCCCOC(=O)Nc1nc(=O)n([C@@H]2O[C@H](C)[C@@H](O)[C@H]2O)cc1F [Capecitabine, capecitabine]","m6A methylation level of HaCat cells, increase compared with blank control group",[1],6.01 times
same,m6A methylation level of human HaCat keratinocytes,[2],significantly increase
same,fold induction at 0.05 µM,[2],6.7
same,cytokine IL-8 in skin tissues of hind limb toes (immunohistochemistry),[3]; capecitabine oral for 14 days,significantly increased
same,degree of swelling of hind limb toes,[3],swelling of the hind limb toes of the mice is caused
same,epidermal layer and stratum corneum in skin tissues of hind limb toes (pathological staining),[3],significantly thickened
same,skin appearance of hind limb toes,[3],"obvious erythema, rhagades, and blisters"
"NC(=O)C1CCCc2c1[nH]c1ccc(Cl)c(F)c21 (stereo not drawn) [Compound 3a, 6-chloro-5-fluoro-2,3,4,9-tetrahydro-1H-carbazole-1-carboxamide]","mRNA expression amounts of HaCaT differentiation markers KRT1, KRT10, Loricrin, and Involucrin",[4],significantly inhibited
same,m6A fold change relative to control group 1,[2]; [6],2.8
same,m6A fold change relative to control group 1,[2]; [7],4.2
same,m6A fold change relative to control group 1,[2]; [8],2.9
same,m6A fold change relative to control group 1,[2]; [9],3.3
"NC(=O)C1CCCc2c1[nH]c1cc(F)c(Cl)cc21 (stereo not drawn) [Compound 3b, 6-chloro-7-fluoro-2,3,4,9-tetrahydro-1H-carbazole-1-carboxamide]","mRNA expression amounts of HaCaT differentiation markers KRT1, KRT10, Loricrin, and Involucrin",[4],significantly inhibited
same,m6A fold change relative to control group 1,[2]; [6],2.9
same,m6A fold change relative to control group 1,[2]; [7],3.2
same,m6A fold change relative to control group 1,[2]; [8],3.1
same,m6A fold change relative to control group 1,[2]; [9],3.3
"NC(=O)C1CCCc2c1[nH]c1cc(Nc3ccccc3)c(Cl)cc21 (stereo not drawn) [Compound 9, 6-chloro-7-phenylamino-2,3,4,9-tetrahydro-1H-carbazole-1-carboxamide]",m6A fold change relative to control group 1,[2]; [6],3.9
same,m6A fold change relative to control group 1,[2]; [7],3.9
same,m6A fold change relative to control group 1,[2]; [8],4.0
same,m6A fold change relative to control group 1,[2]; [9],3.5
"CC(=O)O[C@@]12CO[C@@H]1C[C@H](O)[C@@]1(C)C(=O)[C@H](O)C3=C(C)[C@@H](OC(=O)[C@H](O)[C@@H](NC(=O)OC(C)(C)C)c4ccccc4)C[C@@](O)([C@@H](OC(=O)c4ccccc4)[C@H]21)C3(C)C [Docetaxel, docetaxel]","m6A methylation level of HaCat cells, increase compared with blank control group",[1],3.97 times
same,m6A methylation level of human HaCat keratinocytes,[2],significantly increase
same,fold induction at 0.05 µM,[2],5.6
same,cytokine IL-6 in skin tissues of hind limb toes (immunohistochemistry),[3]; docetaxel oral for 14 days,significantly increased
same,degree of swelling of hind limb toes,[3],swelling of the hind limb toes of the mice is caused
same,epidermal layer and stratum corneum in skin tissues of hind limb toes (pathological staining),[3],significantly thickened
same,skin appearance of hind limb toes,[3],"obvious erythema, rhagades, and blisters"
"m6A demethylase FTO: recombinant protein of m6A demethylase FTO (Abcam, Cat. #ab271525)",mRNA expression amount of NAP1L2,[5],significantly decreased
"m6A methylase METTL3: recombinant protein of m6A methylase METTL3 (Abcam, Cat. #ab271611)",mRNA expression amount of NAP1L2,[5],significantly increased
